{"source": "ChEMBL document CHEMBL1129810", "about": "“Eicosanoid biosynthesis: differential inhibition of cytochrome P450 epoxygenase and -hydroxylase” (Bioorg Med Chem Lett, 1997)", "data": [{"target": "T1, Cytochrome P450 2C23 (Rattus norvegicus, UniProt P24470)", "T1 sequence (P24470 whole entry)": "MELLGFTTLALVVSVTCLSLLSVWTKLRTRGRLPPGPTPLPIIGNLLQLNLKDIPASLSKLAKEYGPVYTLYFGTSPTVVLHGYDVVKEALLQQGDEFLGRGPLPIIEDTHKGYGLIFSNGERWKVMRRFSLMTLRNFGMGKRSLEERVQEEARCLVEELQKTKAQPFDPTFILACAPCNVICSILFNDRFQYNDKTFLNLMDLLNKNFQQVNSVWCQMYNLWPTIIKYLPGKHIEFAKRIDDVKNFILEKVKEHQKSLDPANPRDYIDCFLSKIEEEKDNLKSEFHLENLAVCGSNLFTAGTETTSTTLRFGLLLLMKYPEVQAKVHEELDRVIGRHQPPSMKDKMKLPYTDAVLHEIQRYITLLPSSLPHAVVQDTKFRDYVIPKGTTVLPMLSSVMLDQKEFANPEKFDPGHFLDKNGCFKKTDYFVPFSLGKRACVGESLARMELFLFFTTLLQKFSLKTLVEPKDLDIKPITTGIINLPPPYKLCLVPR", "assay": "Inhibition of Cytochrome P450 epoxygenase in rat kidney microsomes", "type": "ADME", "units": {"IC50": "µM"}, "values": [{"smiles": "CS(=O)(=O)NC(=O)CCCCCCCC=C(Br)Br", "IC50": 6}, {"smiles": "COC(=O)CCCCCCCC=C(Br)Br", "IC50": 6}, {"smiles": "C#CC#CC(O)CCc1ccccc1-c1ccccc1CO", "note": "(stereo not drawn)", "IC50": 5}]}]}
